Measurements taken from patent publication US6632834B2, “Compositions and methods for treating conditions responsive to estrogen” (Pfizer Inc., priority 2000, dated 2003).

Legend:
MDA-MB-231 cells = assay: Inhibition of in vitro human breast tumor cell growth (direct cell counts), ER-negative cells; format: cell-based; conditions: MDA-MB-231 (ER-negative), 6 days incubation
Experimental: (§1) The in vitro antiproliferative effects of (−)-cis-6-phenyl-5-[4-(2-pyrrolidin-1-yl-ethoxy)-phenyl]-5,6,7,8-tetrahydro-naphthalene-2-ol (PPTN) were tested using two types of human breast cancer cell lines: first, MCF-7 cells, which contain ER as well as progesterone receptors (PgR), and second, MDA-MB-231 cells, which lack ER and PgR, and enable the determination of an effect that is independent of the ER mechanism. The effect of PPTN on the growth of these different cell lines was determined by incubation of the cells with various compound concentrations for 6 days.
(§2) The antiproliferative effects were then determined by direct cell counts. PPTN inhibited the growth of the ER-positive cell line MCF-7.

MCF-7 cells = assay: Inhibition of in vitro human breast tumor cell growth (direct cell counts), ER-positive cells; format: cell-based; conditions: MCF-7 (ER-positive), 6 days incubation
Experimental: as §1, §2

Oc1ccc2c(c1)CC[C@H](c1ccccc1)[C@@H]2c1ccc(OCCN2CCCC2)cc1 [PPTN, (−)-cis-6-phenyl-5-[4-(2-pyrrolidin-1-yl-ethoxy)-phenyl]-5,6,7,8-tetrahydro-naphthalene-2-ol]
inhibition of cell proliferation (MDA-MB-231 cells): did not inhibit cell proliferation
IC50 for growth inhibition (MCF-7 cells): 3 to 5×10^−11 M
